This note sets out measurements from patent US11304946B2, “2-hetarylpyrimidine-4-carboxamides as aryl hydrocarbon receptor antagonists” (Bayer Aktiengesellschaft, priority 2017, dated 2022).

In this assay the target is T1, Human AhR (Homo sapiens, UniProt P35869).
T1 construct: host or cells: U87 glioblastoma cells, stably transfected with DRE-driven firefly luciferase and constitutive renilla reporter constructs
T1 sequence (P35869 11-848): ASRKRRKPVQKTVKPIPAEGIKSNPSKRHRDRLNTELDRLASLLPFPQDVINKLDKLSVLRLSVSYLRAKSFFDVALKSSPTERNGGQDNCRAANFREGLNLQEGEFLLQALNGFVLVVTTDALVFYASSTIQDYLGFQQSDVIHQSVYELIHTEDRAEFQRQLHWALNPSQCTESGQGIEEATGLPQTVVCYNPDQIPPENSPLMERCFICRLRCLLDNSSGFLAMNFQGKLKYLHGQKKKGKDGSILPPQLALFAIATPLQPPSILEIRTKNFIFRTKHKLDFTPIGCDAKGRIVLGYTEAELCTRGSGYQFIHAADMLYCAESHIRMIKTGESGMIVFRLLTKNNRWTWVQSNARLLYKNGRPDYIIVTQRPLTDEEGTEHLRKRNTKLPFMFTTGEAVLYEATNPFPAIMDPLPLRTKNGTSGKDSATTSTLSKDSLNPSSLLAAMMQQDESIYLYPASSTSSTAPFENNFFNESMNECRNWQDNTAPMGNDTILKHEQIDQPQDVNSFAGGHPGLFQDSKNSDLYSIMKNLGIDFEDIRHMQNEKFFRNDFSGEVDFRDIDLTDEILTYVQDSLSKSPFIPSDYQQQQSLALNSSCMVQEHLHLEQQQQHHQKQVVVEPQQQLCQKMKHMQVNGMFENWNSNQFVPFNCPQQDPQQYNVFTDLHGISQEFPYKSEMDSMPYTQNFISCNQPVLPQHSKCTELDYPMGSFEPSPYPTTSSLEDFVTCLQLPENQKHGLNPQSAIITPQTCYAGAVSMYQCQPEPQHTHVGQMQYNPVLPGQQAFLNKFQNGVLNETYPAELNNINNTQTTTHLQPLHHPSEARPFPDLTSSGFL
The assay can be described thus: Transactivation assay in human cell line (in vitro assay 1: antagonism). Type of assay: cell-based. Conditions: U87 glioblastoma cells, AHR inducible (DRE) firefly luciferase reporter, 150 μM kynurenic acid, 20 hours. On the procedure: Transactivation Assay in Human Cell Line (In Vitro Assay 1)
Transactivation assay was carried out in U87 glioblastoma cells (ATCC) endogenously expressing AHR. In addition the cells were stably transfected with an AHR inducible firefly luciferase reporter gene construct that carried AHR-binding sites (DRE) in its promoter and a renilla reporter gene construct with constitutively active promoter. Kynurenic acid is an endogenous AHR activating ligand and was used to prestimulate test cells prior to testing the antagonistic properties of compounds.
In Vitro Assay 1: Antagonism in Human Cell Line
Firefly luciferase and Renilla activity was determined by the DualGlo Luciferase Assay System (Promega, #2920). Renilla activity was used to assess toxic effects of compounds.
Background: A reporter such as luciferase makes a cellular process visible.
Regarding `C[C@@H](CO)NC(=O)c1cc(-c2ccc(OC(F)(F)F)cc2)nc(-c2cccs2)n1` [Example 30, N-[(2S)-1-hydroxypropan-2-yl]-2-(thiophen-2-yl)-6-[4-(trifluoromethoxy)phenyl]pyrimidine-4-carboxamide], the 50% inhibitory concentration (IC50) (usually the concentration that gives 50% inhibition) came out at 6.38 nM. This counts as single-digit nanomolar.
In turn, `C[C@@H](CO)NC(=O)c1cc(-c2ccc(Cl)cc2)nc(-c2cnc(Cl)nc2)n1` [Example 84, 2′-chloro-6-(4-chlorophenyl)-N-[(2S)-1-hydroxypropan-2-yl][2,5′-bipyrimidine]-4-carboxamide] registered a half-maximal inhibitory concentration (IC50) of 17600 nM.
Under `C[C@@H](CO)NC(=O)c1cc(-c2ccc(OC(F)(F)F)cc2)nc(-c2cnn(C3CC3)c2)n1` [Example 44, 2-(1-cyclopropyl-1H-pyrazol-4-yl)-N-[(2S)-1-hydroxypropan-2-yl]-6-[4-(trifluoromethoxy)phenyl]pyrimidine-4-carboxamide] stands 972 nM; under `Cn1cc(-c2nc(C(=O)N[C@@H]3CS(=O)(=O)C[C@@H]3O)cc(-c3ccc(OC(F)(F)F)cc3)n2)cn1` (relative stereo) [Example 98, N-[(cis)-4-hydroxy-1,1-dioxo-1lambda^6-thiolan-3-yl]-2-(1-methyl-1H-pyrazol-4-yl)-6-[4-(trifluoromethoxy)phenyl]pyrimidine-4-carboxamide], 20.6 nM.
Take `Cc1ncc(-c2nc(C(=O)N[C@@H](C)CO)cc(-c3ccc(OC(F)(F)F)cc3)n2)cn1` [Example 42, N-[(2S)-1-hydroxypropan-2-yl]-2′-methyl-6-[4-(trifluoromethoxy)phenyl][2,5′-bipyrimidine]-4-carboxamide]: the half-maximal inhibitory concentration (IC50) came to 120 nM. Compared with the last molecule, the IC50 is about 5.8-fold higher.
Take `Cn1cc(-c2nc(C(=O)N[C@H]3CCC[C@H]3O)cc(-c3ccc(OC(F)(F)F)cc3)n2)cn1` (relative stereo) [Example 91, N-[(cis)-2-hydroxycyclopentyl]-2-(1-methyl-1H-pyrazol-4-yl)-6-[4-(trifluoromethoxy)phenyl]pyrimidine-4-carboxamide]: the 50% inhibitory concentration (IC50) worked out at 1.58 nM.
Under `C[C@@H](CO)NC(=O)c1cc(-c2ccc(Cl)cc2)nc(-c2cn[nH]c2)n1` [Example 81, 6-(4-chlorophenyl)-N-[(2S)-1-hydroxypropan-2-yl]-2-(1H-pyrazol-4-yl)pyrimidine-4-carboxamide] stands 1040 nM; under `Cc1cscc1-c1nc(C(=O)N[C@@H](C)CO)cc(-c2ccc(OC(F)(F)F)cc2)n1` [Example 29, N-[(2S)-1-hydroxypropan-2-yl]-2-(4-methylthiophen-3-yl)-6-[4-(trifluoromethoxy)phenyl]pyrimidine-4-carboxamide], 15.2 nM.
Next, `Cn1cc(-c2nc(C(=O)NCC3(O)CCC3)cc(-c3ccc(OC(F)(F)F)cc3)n2)cn1` [Example 97, N-[(1-hydroxycyclobutyl)methyl]-2-(1-methyl-1H-pyrazol-4-yl)-6-[4-(trifluoromethoxy)phenyl]pyrimidine-4-carboxamide]: 4.99 nM; `CC(C)(O)CNC(=O)c1cc(-c2ccc(OC(F)(F)F)cc2)nc(-c2cnc(C#N)nc2)n1` [Example 23, 2′-cyano-N-(2-hydroxy-2-methylpropyl)-6-[4-(trifluoromethoxy)phenyl][2,5′-bipyrimidine]-4-carboxamide]: > 20000 nM; `COc1ccc(-c2nc(C(=O)NCC(C)(C)O)cc(-c3ccc(Cl)cc3)n2)cn1` [Example 46, 6-(4-chlorophenyl)-N-(2-hydroxy-2-methylpropyl)-2-(6-methoxypyridin-3-yl)pyrimidine-4-carboxamide]: 431 nM.
Under `CC(C)(O)CNC(=O)c1cc(-c2ccc(OC(F)(F)F)cc2)nc(-c2cnn(C3CC3)c2)n1` [Example 26, 2-(1-cyclopropyl-1H-pyrazol-4-yl)-N-(2-hydroxy-2-methylpropyl)-6-[4-(trifluoromethoxy)phenyl]pyrimidine-4-carboxamide] stands 3960 nM; under `Cc1n[nH]cc1-c1nc(C(=O)N[C@@H](C)CO)cc(-c2ccc(Cl)cc2)n1` [Example 82, 6-(4-chlorophenyl)-N-[(2S)-1-hydroxypropan-2-yl]-2-(3-methyl-1H-pyrazol-4-yl)pyrimidine-4-carboxamide], 215 nM; under `COc1ccc(-c2nc(C(=O)NCC(C)(C)O)cc(-c3ccc(OC(F)(F)F)cc3)n2)cn1` [Example 14, N-(2-hydroxy-2-methylpropyl)-2-(6-methoxypyridin-3-yl)-6-[4-(trifluoromethoxy)phenyl]pyrimidine-4-carboxamide], 307 nM.
`Cc1cn[nH]c1-c1nc(C(=O)N[C@@H](C)CO)cc(-c2ccc(OC(F)(F)F)cc2)n1` [Example 45, N-[(2S)-1-hydroxypropan-2-yl]-2-(4-methyl-1H-pyrazol-5-yl)-6-[4-(trifluoromethoxy)phenyl]pyrimidine-4-carboxamide] returned a 50% inhibitory concentration (IC50) of 57.2 nM.
Next, `C[C@@H](CO)NC(=O)c1cc(-c2ccc(Cl)cc2)nc(-c2cccs2)n1` [Example 50, 6-(4-chlorophenyl)-N-[(2S)-1-hydroxypropan-2-yl]-2-(thiophen-2-yl)pyrimidine-4-carboxamide]: 5.91 nM; `CC(C)Cn1cc(-c2nc(C(=O)N[C@@H](C)CO)cc(-c3ccc(Cl)cc3)n2)cn1` [Example 77, 6-(4-chlorophenyl)-N-[(2S)-1-hydroxypropan-2-yl]-2-[1-(2-methylpropyl)-1H-pyrazol-4-yl]pyrimidine-4-carboxamide]: 1180 nM.
Under `Cc1noc(C)c1-c1nc(C(=O)NCC(C)(C)O)cc(-c2ccc(Cl)cc2)n1` [Example 56, 6-(4-chlorophenyl)-2-(3,5-dimethyl-1,2-oxazol-4-yl)-N-(2-hydroxy-2-methylpropyl)pyrimidine-4-carboxamide] stands 965 nM; under `Cc1nn(C)cc1-c1nc(C(=O)NCC(C)(C)O)cc(-c2ccc(Cl)cc2)n1` [Example 66, 6-(4-chlorophenyl)-2-(1,3-dimethyl-1H-pyrazol-4-yl)-N-(2-hydroxy-2-methylpropyl)pyrimidine-4-carboxamide], 50.1 nM.
Next, `COc1ccc(-c2nc(C(=O)N[C@@H](C)CO)cc(-c3ccc(Cl)cc3)n2)cn1` [Example 69, 6-(4-chlorophenyl)-N-[(2S)-1-hydroxypropan-2-yl]-2-(6-methoxypyridin-3-yl)pyrimidine-4-carboxamide]: 342 nM; `C[C@@H](CO)NC(=O)c1cc(-c2ccc(OC(F)(F)F)cc2)nc(-c2ccc(C#N)nc2)n1` [Example 38, 2-(6-cyanopyridin-3-yl)-N-[(2S)-1-hydroxypropan-2-yl]-6-[4-(trifluoromethoxy)phenyl]pyrimidine-4-carboxamide]: 4510 nM.
`Cc1ccsc1-c1nc(C(=O)N[C@@H](C)CO)cc(-c2ccc(OC(F)(F)F)cc2)n1` [Example 33, N-[(2S)-1-hydroxypropan-2-yl]-2-(3-methylthiophen-2-yl)-6-[4-(trifluoromethoxy)phenyl]pyrimidine-4-carboxamide] had an IC50 of 9.25 nM.
Under `Cn1cc(-c2nc(C(=O)N[C@H]3CC[C@H]3O)cc(-c3ccc(OC(F)(F)F)cc3)n2)cn1` (relative stereo) [Example 107, N-[(cis)-2-hydroxycyclobutyl]-2-(1-methyl-1H-pyrazol-4-yl)-6-[4-(trifluoromethoxy)phenyl]pyrimidine-4-carboxamide] stands 4.57 nM; under `C[C@@H](CO)NC(=O)c1cc(-c2ccc(Cl)cc2)nc(-c2ccc(C#N)nc2)n1` [Example 78, 6-(4-chlorophenyl)-2-(6-cyanopyridin-3-yl)-N-[(2S)-1-hydroxypropan-2-yl]pyrimidine-4-carboxamide], 741 nM.
Regarding `CC(C)(O)CNC(=O)c1cc(-c2ccc(Cl)cc2)nc(-c2cnc(Cl)nc2)n1` [Example 67, 2′-chloro-6-(4-chlorophenyl)-N-(2-hydroxy-2-methylpropyl)[2,5′-bipyrimidine]-4-carboxamide], the IC50 was determined as 12600 nM.
Next, `CC(C)(O)CNC(=O)c1cc(-c2ccc(Cl)cc2)nc(-c2ccc(C#N)nc2)n1` [Example 59, 6-(4-chlorophenyl)-2-(6-cyanopyridin-3-yl)-N-(2-hydroxy-2-methylpropyl)pyrimidine-4-carboxamide]: 6870 nM.
As to `COc1ccc(-c2nc(C(=O)N[C@@H](C)CO)cc(-c3ccc(OC(F)(F)F)cc3)n2)cn1` [Example 27, N-[(2S)-1-hydroxypropan-2-yl]-2-(6-methoxypyridin-3-yl)-6-[4-(trifluoromethoxy)phenyl]pyrimidine-4-carboxamide], half-maximal inhibition (IC50) was put at 438 nM.
